Patent US20050090529A1, “3,5 Disubstituted indazole compounds with nitrogen-bearing 5-membered heterocycles, pharmaceutical compositions, and methods for mediating or inhibiting cell proliferation” (PFIZER INC, priority 2003, published 2005)

Each compound was assayed on Cyclin-dependent kinase (assay: Cyclin-dependent kinase inhibition, % inhibition at 10 nM (library Examples 99-270)). Conditions: 10 nM compound.
Type: biochemical
Procedure, shortened: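 Radiometric filter assay: kinase transfers ³²P/³³P from 25 μM ATP to a protein substrate in pH 7.4 HEPES buffer with MgCl2, 2% DMSO, 30° C, 20 min. EDTA stop; substrate captured on nitrocellulose or phosphocellulose membrane, washed with phosphoric acid, counted by phosphorimager.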

SMILES	% Inhib @ 10 nM [%]
CCNCc1cncc(-c2ccc3[nH]nc(-c4ncc(C(=O)N5CCN(c6cccc7ccccc67)CC5)[nH]4)c3c2)c1C [Example 236, ethyl({4-methyl-5-[3-(5-{[4-(1-naphthyl)piperazin-1-yl]carbonyl}-1H-imidazol-2-yl)-1H-indazol-5-yl]pyridin-3-yl}methyl)amine]	74
CCNCc1cncc(-c2ccc3[nH]nc(-c4ncc(C(=O)NCC5COCCO5)[nH]4)c3c2)c1C (stereo not drawn) [Example 237, N-(1,4-dioxan-2-ylmethyl)-2-(5-{5-[(ethyamino)methy]-4-methypyridin-3-yl}-1H-indazol-3-yl)-1H-imidazole-5-carboxamide]	47
CCNCc1cncc(-c2ccc3[nH]nc(-c4ncc(C(=O)NCc5ccc6[nH]c(C)cc6c5)[nH]4)c3c2)c1C [Example 238, 2-(5-{5-[(ethylamino)methy]-4-methylpyridin-3-yl}-1H-indazol-3-yl)-N-[(2-methyl-1H-indol-5-yl)methyl]-1H-imidazole-5-carboxamide]	75
CCNCc1cncc(-c2ccc3[nH]nc(-c4ncc(C(=O)N5CCC(Cc6ccccc6)C5)[nH]4)c3c2)c1C (stereo not drawn) [Example 239]	75
CCNCc1cncc(-c2ccc3[nH]nc(-c4ncc(C(=O)N5CCC(S(C)(=O)=O)C5)[nH]4)c3c2)c1C (stereo not drawn) [Example 240]	71
CCNCc1cncc(-c2ccc3[nH]nc(-c4ncc(C(=O)N(C)CCS(C)(=O)=O)[nH]4)c3c2)c1C [Example 241]	59
CCNCc1cncc(-c2ccc3[nH]nc(-c4ncc(C(=O)N5CCC(c6cccnc6)C5)[nH]4)c3c2)c1C (stereo not drawn) [Example 242, ethyl{[4-methyl-5-(3-{5-[(3-pyridin-3-ylpyrrolidin-1-yl)carbonyl]-1H-imidazol-2-yl}-1H-indazol-5-yl)pyridin-3-yl]methyl}amine]	66
CCNCc1cncc(-c2ccc3[nH]nc(-c4ncc(C(=O)NCCC5CCOCC5)[nH]4)c3c2)c1C [Example 243, 2-(5-{5-[(ethylamino)methyl]-4-methylpyridin-3-yl}-1H-indazol-3-yl)-N-[2-(tetrahydro-2H-pyran-4-yl)ethyl]-1H-imidazole-5-carboxamide]	34
CCNCc1cncc(-c2ccc3[nH]nc(-c4ncc(C(=O)NC(CO)c5cccnc5)[nH]4)c3c2)c1C (stereo not drawn) [Example 244]	55
CCNCc1cncc(-c2ccc3[nH]nc(-c4ncc(C(=O)N(CCO)C5CCCCC5)[nH]4)c3c2)c1C [Example 245, N-cyclohexyl-2-(5-{5-[(ethylamino)methyl]-4-methylpyridin-3-yl}-1H-indazol-3-yl)-N-(2-hydroxyethyl)-1H-imidazole-5-carboxamide]	30
CCNCc1cncc(-c2ccc3[nH]nc(-c4ncc(C(=O)N5CCN(CC(=O)N6CCCCC6)CC5)[nH]4)c3c2)c1C [Example 246, ethyl({4-methyl-5-[3-(5-{[4-(2-oxo-2-piperidin-1-ylethyl)piperazin-1-yl]carbonyl}-1H-imidazol-2-yl)-1H-indazol-5-yl]pyridin-3-yl}methyl)amine]	26
CCNCc1cncc(-c2ccc3[nH]nc(-c4ncc(C(=O)N5CCC(n6c(C)nc7cnccc76)CC5)[nH]4)c3c2)c1C [Example 247, ethyl({4-methyl-5-[3-(5-{[4-(2-methyl-1H-imidazol[4,5-c]pyridin-1-yl)piperidin-1-yl]carbonyl}-1H-imidazol-2-yl)-1H-indazol-5-yl]pyridin-3-yl}methyl)amine]	26
CCNCc1cncc(-c2ccc3[nH]nc(-c4ncc(C(=O)NCc5ccc(OC(F)F)cc5)[nH]4)c3c2)c1C [Example 248, N-[4-(difluoromethoxy)benzyl]-2-(5-{5-[(ethylamino)methyl]-4-methylpyridin-3-yl}-1H-indazol-3-yl)-1H-imidazole-5-carboxamide]	67
CCNCc1cncc(-c2ccc3[nH]nc(-c4ncc(C(=O)NCC(O)COc5ccccc5)[nH]4)c3c2)c1C (stereo not drawn) [Example 249, 2-(5-{5-[(ethylamino)methyl]-4-methylpyridin-3-yl}-1H-indazol-3-yl)-N-(2-hydroxy-3-phenoxypropyl)-1H-imidazole-5-carboxamide]	69
CCNCc1cncc(-c2ccc3[nH]nc(-c4ncc(C(=O)N5CCC(c6ccn[nH]6)CC5)[nH]4)c3c2)c1C [Example 250, ethyl({4-methyl-5-[3-(5-{[4-(1H-pyrazol-5-yl)piperidin-1-yl]carbonyl}-H-imidazol-2-yl)-1 H-indazol-5-yl]pyridin-3-yl}methyl)amine]	62
CCNCc1cncc(-c2ccc3[nH]nc(-c4ncc(C(=O)NCCn5cc(C(=O)NC(C)(C)C)nn5)[nH]4)c3c2)c1C [Example 251]	27
CCNCc1cncc(-c2ccc3[nH]nc(-c4ncc(C(=O)N5CCC(c6ccnc(NCC)n6)CC5)[nH]4)c3c2)c1C [Example 252, N-ethyl-4-(1-{[2-(5-{5-[(ethylamino)methyl]-4-methylpyridin-3-yl}-1H-indazol-3-yl)-1H-imidazol-5-yl]carbonyl}piperidin-4-yl)pyrimidin-2-amine]	41
CCNCc1cncc(-c2ccc3[nH]nc(-c4ncc(C(=O)NCCC5CCC(=O)N5Cc5ccccc5)[nH]4)c3c2)c1C (stereo not drawn) [Example 253, N-[2-(1-benzyl-5-oxopyrrolidin-2-yl)ethyl]-2-(5-{5-[(ethylamina)methyl]-4-methylpyridin-3-yl}-1H-indazol-3-yl)-1H-imidazole-5-carboxamide]	18
CCNCc1cncc(-c2ccc3[nH]nc(-c4ncc(C(=O)N5CCC6(CC5)CC(N5CCCC5)CO6)[nH]4)c3c2)c1C (stereo not drawn) [Example 254, ethyl{[4-methyl-5-(3-{5-[(3-pyrrolidin-1-yl-1-oxa-8-azaspiro[4.5]dec-8-yl)carbonyl]-1H-imidazol-2-yl}-1H-indazol-5-yl)pyridin-3-yl]methyl}amine]	11
CCNCc1cncc(-c2ccc3[nH]nc(-c4ncc(C(=O)NCc5nnc(-c6ccccc6OC)o5)[nH]4)c3c2)c1C [Example 255, 2-(5-{5-[(ethylamino)methyl]-4-methylpyridin-3-yl}-1H-indazol-3-yl)-N-{[5-(2-methoxyphenyl)-1,3,4-oxadiazol-2-yl]methyl}-1H-imidazole-5-carboxamide]	40
CCNCc1cncc(-c2ccc3[nH]nc(-c4ncc(C(=O)N5CCC(c6nnc(C7CC7)o6)CC5)[nH]4)c3c2)c1C [Example 256, ({5-[3-(5-[[4-(5-cyclopropyl-1,3,4-oxadiazol-2-yl)piperidin-1-yl]carbonyl}-1H-imidazol-2-yl)-1H-indazol-5-yl]-4-methylpyridin-3-yl}methyl)ethylamine]	46
CCNCc1cncc(-c2ccc3[nH]nc(-c4ncc(C(=O)N5CCC(c6nnc(CN(C)C)o6)CC5)[nH]4)c3c2)c1C [Example 257]	37
CCNCc1cncc(-c2ccc3[nH]nc(-c4ncc(C(=O)N(CCC#N)CC5CCCO5)[nH]4)c3c2)c1C (stereo not drawn) [Example 258]	49
CCNCc1cncc(-c2ccc3[nH]nc(-c4ncc(C(=O)N5CCc6c(C(=O)NC)csc6C5)[nH]4)c3c2)c1C [Example 259, 6-{[2-(5-{5-[(ethylamino)methyl]-4-methylpyridin-3-yl}-1H-indazol-3-yl)-1H-imidazol-5-yl]carbonyl}-N-methyl-4,5,6,7-tetrahydrothieno[2,3-c]pyridine-3-carboxamlde]	69
CCNCc1cncc(-c2ccc3[nH]nc(-c4ncc(C(=O)N5CCC(Cc6ncccn6)CC5)[nH]4)c3c2)c1C [Example 260, ethyl({4-methyl-5-[3-(5-{[4-(pyrimidin-2-ylmethyl)piperidin-1-yl]carbonyl}-1H-imidazol-2-yl)-1H-indazol-5-yl]pyridin-3-yl}methyl)amine]	33
CCNCc1cncc(-c2ccc3[nH]nc(-c4ncc(C(=O)N5CCCC(Cc6ncccn6)CC5)[nH]4)c3c2)c1C (stereo not drawn) [Example 261, ethyl({4-methyl-5-[3-(5-{[4-(pyrimidin-2-ylmethyl)azepan-1-yl]carbonyl}-1H-imidazol-2-yl)-1H-indazol-5-yl]pyridin-3-yl}methyl)amine]	30
CCNCc1cncc(-c2ccc3[nH]nc(-c4ncc(C(=O)N5CCC(Cc6cccc(CO)c6)CC5)[nH]4)c3c2)c1C [Example 262, (3-[(1-{[2-(5-{5-[(ethylamino)methyl]-4-methylpyridin-3-yl}-1H-indazol-3-yl)-1H-imidazol-5-yl]carbonyl}piperidin-4-yl)methyl]phenyl}methanol]	59
CCNCc1cncc(-c2ccc3[nH]nc(-c4ncc(C(=O)N5CCC(Cc6ccc(C(N)=O)cc6)CC5)[nH]4)c3c2)c1C [Example 263, 4-[(1-{[2-(5-{5-[(ethylamino)methyl]-4-methylpyridin-3-yl}-1H-indazol-3-y)-1H-imidazol-5-yl]carbonyl}piperidin-4-yl)methyl]benzamide]	69
CCNCc1cncc(-c2ccc3[nH]nc(-c4ncc(C(=O)NCCc5nnc(-c6cnccn6)o5)[nH]4)c3c2)c1C [Example 264]	29
CCNCc1cncc(-c2ccc3[nH]nc(-c4ncc(C(=O)N5CCCC(O)(Cn6cccn6)CC5)[nH]4)c3c2)c1C (stereo not drawn) [Example 265, 1-{[2-(5-{5-[(ethylamino)methyl]-4-methylpyridin-3-yl}-1H-indazol-3-yl)-1H-imidazol-5-yl]carbonyl}-4-(1H-pyrazol-1-ylmethyl)azepan-4-ol]	29
